Measurements from patent US20250179057A1, “MEK IMMUNE ONCOLOGY INHIBITORS AND THERAPEUTIC USES THEREOF” (Immuneering Corporation, priority 2022, published 2025).
Counter-ions that a name gives are not always drawn.

Legend:
Caco-2 cells = assay: Caco-2 bidirectional permeability (absorption & efflux); conditions: Example 47
[1] = Plasma stability, human plasma (K2EDTA); assay type: in vitro ADME; conditions: 2 μM; for T1/2 / % Remaining at T120 / half-life at 2 μM: human plasma, anti-coagulant K2-EDTA; for T1/2 / half-life at 2 μM: 10 to 120 min; for % Remaining at T120: 120 min; for half-life at 2 μM: read-out: T1/2
Experimental: Individual stock solutions of propantheline and lovastatin were prepared at 10 mM in DMSO and were further diluted to 2 mM with DMSO.
Frozen matrices (Balb/c mouse, Wistar Han rat, Beagle dog, and human plasma containing K2EDTA as anti-coagulant) were thawed and centrifuged at 3100 rpm for 10 minutes at 4° C. to remove particulates. The lipid layer was then removed, and the supernatant was transferred to a new tube without disturbing the pellet. After the matrices were incubated at 37° C. for at least 10 minutes, the pH of each matrix was adjusted to pH 7.4, using 10% phosphoric acid or 1N sodium hydroxide as necessary. Test and control article stock solutions were spiked (2 μL) into matrix (1.998 mL) and mixed to final assay concentration of […]. Duplicate 30-μL aliquots of spiked plasma were transferred to matrix tubes in 96-well plate immediately after spiking for timepoints of 0, 30, 60, 120, 240, and 360 minutes. These tubes were then incubated at 37° C. with shaking and at each timepoint, the corresponding tubes containing samples were quenched with 180 μL of cold acetonitrile containing the internal standards. The quenched samples were vortex-mixed briefly and stored refrigerated. After the final time point (360 minutes), the plates with all quenched samples were vortex-mixed for 10 minutes and then centrifuged at 3100 rpm for 10 minutes at 4° C. to sediment the precipitated protein. The supernatant (50 μL) was transferred to a clean 96-well plate and diluted with 100 μL of water. The plates were stored refrigerated until analysis.
Data Analysis: Peak area ratios for IS-normalized test article and control article counts were used to calculate the percent remaining relative to the time zero (T0) value. As appropriate, results were plotted and further analyzed to calculate half-life (T1/2) values.
Mean peak area ratios were used to calculate the % remaining relative to the T0 value:
In this study, human, cynomolgus monkey, beagle dog, wistar hannover rat, and balb/c plasma stability was determined. Table 28 describes the results of the human plasma stability at 2 μM concentration and anti-coagulant K2-EDTA from 10 to 120 min. Table 29 describes the results of the cynomolgus monkey plasma stability at 2 μM concentration and anti-coagulant K2-EDTA. Table 30 describes the results of the beagle dog plasma stability at 2 μM concentration and anti-coagulant K2-EDTA. Table 31 describes the results of the wistar hannover rat plasma stability at 2 μM concentration and anti-coagulant K2-EDTA. Table 32 describes the results of the balb/c plasma stability at 2 μM concentration and anti-coagulant K2-EDTA.

[2] = tested on: phospho-ERK in A549 (KRAS G12S) cells; assay: Cell-based pERK (pERK:tERK) in A549 cells; set-up: A549-pERK 10 uM, 2 h: unit not given here; conditions: for A549-pERK (10 nM, 2 h): phospho- to total protein ratio normalized to DMSO control (Table 9); for IC50: A549, 12-point dose; for pERK:tERK (10 nM 2 h A549): Phospho-ERK Screen in A549 (KRAS G12S), head 10 nM 2 h, title 10 μM for 2 hours; for activity at 0.01 µM: A549, 2 h, read-out: A549-pERK (10 nM, 2 h)
Outline: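 Readout was pERK versus tERK by Western blot with IRDye-labelled secondary antibodies, imaged and quantified on a LI-COR Odyssey. Lysates were loaded at 1 mg/mL protein after Bradford estimation.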

[3] = tested on: cynomolgus monkey hepatocytes; assay: Hepatocyte stability, cynomolgus monkey; assay type: in vitro ADME; conditions: 2 μM, 0.5 million cells/ml
Experimental: In this study, human, cynomolgus monkey, beagle dog, wistar hannover rat, and balb/c mouse hepatocyle stability was determined.

Row | Human (% Reamining @2 hour) ([1]; plasma, 2 hour) | SMILES | A − B Permeability Ranking (Caco-2 cells) | Mean Efflux Ratio (Caco-2 cells) | Mean Papp A − B (10^−6 cm/s) (Caco-2 cells) | Mean Papp B − A (10^−6 cm/s) (Caco-2 cells) | T1/2 [1] | % Remaining at T120 [1] | A549-pERK (10 nM, 2 h) ([2]; 2 h) | A549 pERK:tERK ratio [10 nM; 2 hr] [2] | A549-pERK 10 uM, 2 h ([2]; 10 uM, 2 h, phospho- to total protein ratio normalized to DMSO control) | IC50 [2] | pERK:tERK (10 nM 2 h A549) [2] | % Remaining At T120 [3] | CLint (L/hr/kg) [3] | CLint (mL/min/kg) [3] | T1/2 [3] | IC50 ([2]; Homo sapiens) | half-life at 2 μM ([1]; pH 7.4) | Human (% Reamining @2 hour) ([1]; human, 2 h, pH 7.4) | activity at 0.01 µM ([2]; Homo sapiens)
1 |  | CNS(=O)(=O)Nc1cccc(Cc2c(CN(C)C)c3ccc(OC(=O)N(C)C)cc3oc2=O)c1F [Compound 9] | Higher | 1.32 | 16.4 10^−6 cm/s | 21.7 10^−6 cm/s | >120 min | 99.8% | 63.0 | 0.62 | 1.205 (mean, n = 2) | 19.8 nM | 65 (n = 27) | 44.3% | 3.30 L/h/kg | 54.9 mL/min/kg | 102 min |  |  |  | 
2 | 91.1% | CNS(=O)(=O)Nc1nccc(Cc2c(C)c3ccc(Oc4ncccn4)cc3oc2=O)c1F [Reference-2, reference compound] |  |  |  |  |  |  |  |  |  |  |  |  |  |  |  | 7.2 nM |  |  | 
3 |  | CCS(=O)(=O)Nc1cccc(Cc2c(CN3CCNCC3)c3cc(Cl)c(OC(=O)N(C)C)cc3oc2=O)c1Cl [Compound 257, 6-chloro-3-(2-chloro-3-(ethylsulfonamido)benzyl)-2-oxo-4-(piperazin-1-ylmethyl)-2H-chromen-7-yl dimethylcarbamate hydrochloride] | Higher |  |  |  |  | 96.3% |  |  |  |  | 17 | 62.8% |  |  |  |  | 10400 min |  | 
4 |  | CNS(=O)(=O)Nc1cccc(Cc2c(CN(C)C)c3ccc(OC(=O)N(C)C)cc3oc2=O)c1Cl [Compound 274, 3-(2-chloro-3-((N-methylsulfamoyl)amino)benzyl)-4-((dimethylamino)methyl)-2-oxo-2H-chromen-7-yl dimethylcarbamate] | Higher |  |  |  |  | 121.2% |  |  |  |  |  | 24.5% |  |  |  |  | > 120 min |  | 
5 |  | CNS(=O)(=O)Nc1cccc(Cc2c(CN(C)C)c3cc(F)c(OC(=O)N(C)C)cc3oc2=O)c1F [Compound 25] | Higher | 3.82 | 4.39 10^−6 cm/s | 16.7 10^−6 cm/s | >120 min | 112.1% | 66.2 |  |  |  | 66 (n = 2) | 80.4% | 0.886 L/h/kg | 14.8 mL/min/kg | 380 min |  |  |  | 
6 |  | CCS(=O)(=O)Nc1cccc(Cc2c(CN(C)C)c3ccc(OC(=O)N(C)C)cc3oc2=O)c1F [Compound 120] | Higher | 0.567 | 21.9 10^−6 cm/s | 12.4 10^−6 cm/s | >120 min | 123.8% | 77.2 |  |  |  |  | 31.6% | 4.67 L/h/kg | 77.8 mL/min/kg | 72.1 min |  |  |  | 
7 |  | CNS(=O)(=O)Nc1nccc(Cc2c(CN(C)C)c3ccc(OC(=O)N(C)C)cc3oc2=O)c1F [Compound 124] | Higher | 5.12 | 3.51 10^−6 cm/s | 18.0 10^−6 cm/s | 631 min | 85.0% | 94.6 |  |  |  |  | 49.2% | 2.87 L/h/kg | 47.9 mL/min/kg | 117 min |  |  |  | 
8 |  | Cn1cnc2c(F)c(Nc3ccc(Br)cc3Cl)c(C(=O)NOCCO)cc21 [Reference-1, Selumetinib] |  |  |  |  |  |  |  | 0.56 |  |  |  |  |  |  |  | 7.2 nM |  | 98.1% | 
9 |  | CCN(C)Cc1c(Cc2cccc(NS(=O)(=O)NC)c2F)c(=O)oc2cc(OC(=O)N(C)C)c(F)cc12 [Compound 238] | Higher |  |  |  |  | 95.7% |  |  |  |  |  | 23.3% |  |  |  |  | 4110 min |  | 68.4%
10 |  | CCN(C)Cc1c(Cc2cccc(NS(=O)(=O)NC)c2Cl)c(=O)oc2cc(OC(=O)N(C)C)ccc12 [Compound 245, 3-(2-chloro-3-((N-methylsulfamoyl)amino)benzyl)-4-((ethyl(methyl)amino)methyl)-2-oxo-2H-chromen-7-yl dimethylcarbamate] | Higher |  |  |  |  | 106.8% |  |  |  |  | 69 | 3.3% |  |  |  |  | > 120 min |  | 68.8%
11 |  | CCCS(=O)(=O)Nc1cccc(Cc2c(CN3CCNCC3)c3cc(Cl)c(OC(=O)N(C)C)cc3oc2=O)c1F [Compound 167] | Lower | 23.2 | 0.845 10^−6 cm/s | 19.6 10^−6 cm/s | 948 min | 84.6% |  |  |  |  | 27 (n = 2) | 29.0% | 5.02 L/h/kg | 83.7 mL/min/kg | 67.1 min |  |  |  | 
12 |  | CNS(=O)(=O)Nc1cccc(Cc2c(CN3CCNCC3)c3cc(Cl)c(OC(=O)N(C)C)cc3oc2=O)c1Cl [Compound 256, 6-chloro-3-(2-chloro-3-((N-methylsulfamoyl)amino)benzyl)-2-oxo-4-(piperazin-1-ylmethyl)-2H-chromen-7-yl dimethylcarbamate hydrochloride] | Higher |  |  |  |  | 84.8% |  |  |  |  | 14 | 53.9% |  |  |  |  | 841 min |  | 
13 |  | CNS(=O)(=O)Nc1cccc(Cc2c(CN3CCNCC3)c3cc(F)c(OC(=O)N(C)C)cc3oc2=O)c1F [Compound 134] | Higher | 2.01 | 3.99 10^−6 cm/s | 8.08 10^−6 cm/s | >120 min | 107.8% | 33.1 |  |  |  |  | 78.5% | 0.980 L/h/kg | 16.3 mL/min/kg | 344 min |  |  |  | 
14 |  | CNS(=O)(=O)Nc1cccc(Cc2c(CN3CCNCC3)c3ccc(OC(=O)N(C)C)cc3oc2=O)c1Cl [Compound 246, 3-(2-chloro-3-((N-methylsulfamoyl)amino)benzyl)-2-oxo-4-(piperazin-1-ylmethyl)-2H-chromen-7-yl dimethylcarbamate hydrochloride] | Higher |  |  |  |  | 105.7% |  |  |  |  | 19 | 81.4% |  |  |  |  | > 120 min |  | 19%
